“Also recorded” adds a separate entry of the source.
Columns and labels:
Assay type in all cases: cell-based
[1] = system: STAT5 phosphorylation in CD4+ Treg cells; assay: STAT5 phosphorylation in CD4+ Treg cells, human PBMC assay by FACS
Excerpt: (§1) Single amino acid substitutions were introduced to IL-2 at positions corresponding to amino acids interacting with receptor subunit(s) β or γ or βγ. These substitutions were aimed to reduce IL-2 signaling capacity through the intermediate affinity IL-2Rβγ complex and confer signaling specificity from the high affinity IL-2Rαβγ. IL-2 variants containing single amino acid substitutions were examined for their ability to differentially stimulate STAT5 phosphorylation in CD4 positive Treg and Tconv cells. STAT5 is known to be involved in the downstream signaling cascade upon IL-2 binding to the transmembrane IL-2 receptors. The phosphorylation of STAT5 in defined lymphocyte subpopulations was measured using fresh human peripheral blood mononuclear cells (PBMC) and the forkhead transcription factor FOXP3 was used to identify the Treg population in FACS analysis.
(§2) Briefly, human PBMC were isolated by Ficoll-Hypaque centrifugation from the buffy coat of a healthy donor. PBMC were starved in serum-free MACS buffer at 4° C. for 1 hour. 2×10^5 PBMC were then treated with serial dilutions of test compounds for 30 min at 37° C. Cells were fixed and permeabilized with Foxp3/Transcription Factor Staining Buffer Set (EBIO) by incubating with 1× Foxp3 fixation/permeabilization working solution for 30 minutes and washing with 1× permeabilization buffer. Cells were additionally fixed with Cytofix buffer and permeabilized with Perm Buffer III (BD Biosciences) and then washed. After blocking Fc receptors by adding human TruStain FcX (1:50 dilution), cells were stained with a mixture of anti-CD25-PE, anti-FOXP3-APC, anti-pSTAT5-FITC, and anti-CD4-PerCP-Cy5.5 antibodies at concentrations recommended by the manufacturer for 45 minutes at room temperature. Cells were collected by centrifugation, washed, resuspended in FACS buffer, and analyzed by flow cytometry. The flow cytometry data was gated into CD4+/Foxp3+/CD25^high and CD4+/Foxp3−/CD25^low groups for the Treg and CD4 conventional T cell subsets, respectively. Data are expressed as a percent of pStat5 positive cells in gated population.

[2] = system: CD4+ Treg vs CD4+ Tconv cells; assay: STAT5 phosphorylation, selectivity / activity profile Treg versus CD4+ Tconv cells, human PBMC
Excerpt: as §1, §2
The S125I substitution was then introduced into wild-type IL-2 or IL-2 variants that already harbored 1 or 2 mutations targeting receptor subunit(s) β or γ or βγ. The resulting IL-2 variants containing isoleucine at position 125 were tested for their ability to stimulate STAT5 phosphorylation in Treg and Tconv cells in comparison with their respective serine counterparts at position 125. Table 7 lists the potency and selectivity of IL-2 variants in Treg cells. The two molecules in the same row of Table 7 share the same other amino acid substitution(s) and differ only at position 125 with either serine or isoleucine.

[3] = system: STAT5 phosphorylation in CD4+ Tconv cells; assay: STAT5 phosphorylation in CD4+ Tconv cells, human PBMC assay by FACS
Excerpt: as §1, §2

**Q.** How did the “STAT5 phosphorylation activity in Treg cells (in words)” value [1] turn out when “P-0303: IL-2 Q126E Fc fusion, SEQ ID NO: 90” was run?
**A.** minimally impacted the pSTAT5 activation potency

**Q.** What about the “activity profile / selectivity window Treg over CD4+ Tconv (in words)” value [2] of the same substance?
**A.** modestly improved selective window

**Q.** For “P-0322: IL-2 D20T/Q126E Fc fusion, SEQ ID NO: 99”, which “STAT5 phosphorylation activity in Treg cells (in words)” value [1] is on record?
**A.** pronounced reduced potency

**Q.** For “P-0365: IL-2 D20N Fc fusion, SEQ ID NO: 76”, which “STAT5 phosphorylation activity in Treg cells (in words)” value [1] is on record?
**A.** ability to induce STAT5 phosphorylation

**Q.** What about the “STAT5 phosphorylation activity in CD4+ Tconv cells (in words)” value [3] of the same substance?
**A.** largely diminished or abolished

**Q.** With “P-0366: IL-2 D20Q Fc fusion, SEQ ID NO: 77” as the substance, how does the “STAT5 phosphorylation activity in Treg cells (in words)” value [1] read?
**A.** ability to induce STAT5 phosphorylation

**Q.** And the “STAT5 phosphorylation activity in CD4+ Tconv cells (in words)” value [3]?
**A.** largely diminished or abolished

**Q.** For “P-0367: IL-2 D20S Fc fusion, SEQ ID NO: 78”, which “STAT5 phosphorylation activity in Treg cells (in words)” value [1] is on record?
**A.** ability to induce STAT5 phosphorylation

**Q.** What about the “STAT5 phosphorylation activity in CD4+ Tconv cells (in words)” value [3] of the same substance?
**A.** largely diminished or abolished

**Q.** With “P-0368: IL-2 D20Y Fc fusion, SEQ ID NO: 79” as the substance, how does the “STAT5 phosphorylation activity in Treg cells (in words)” value [1] read?
**A.** no biological activity

**Q.** And the “STAT5 phosphorylation activity in CD4+ Tconv cells (in words)” value [3]?
**A.** no biological activity

**Q.** Which “activity profile / selectivity window Treg over CD4+ Tconv (in words)” value [2] does the source give for “P-0373: IL-2 L19N Fc fusion, SEQ ID NO: 82” here?
**A.** wide window for selective targeting of Treg subset; also recorded: some or significant biased selective window

**Q.** What about the “STAT5 phosphorylation activity in CD4+ Tconv cells (in words)” value [3] of the same substance?
**A.** reduced

**Q.** With “P-0374: IL-2 L19R Fc fusion, SEQ ID NO: 83” as the substance, how does the “STAT5 phosphorylation activity in CD4+ Tconv cells (in words)” value [3] read?
**A.** largely retained the biological activity

**Q.** With “P-0417: IL-2 L19N/Q126E Fc fusion, SEQ ID NO: 103” as the substance, how does the “STAT5 phosphorylation activity in Treg cells (in words)” value [1] read?
**A.** pronounced reduced potency

**Q.** How did the “STAT5 phosphorylation activity in CD4+ Tconv cells (in words)” value [3] turn out when “P-0423: IL-2 L19Q Fc fusion, SEQ ID NO: 152” was run?
**A.** largely retained the biological activity

**Q.** With “P-0427: IL-2 L19S Fc fusion, SEQ ID NO: 156” as the substance, how does the “STAT5 phosphorylation activity in CD4+ Tconv cells (in words)” value [3] read?
**A.** largely retained the biological activity

**Q.** “P-0448: IL-2 L19Q/Q126E Fc fusion, SEQ ID NO: 174” was tested. Which “STAT5 phosphorylation activity in Treg cells (in words)” value [1] did it give?
**A.** significant potency

**Q.** And the “activity profile / selectivity window Treg over CD4+ Tconv (in words)” value [2]?
**A.** on par with Benchmark-2

**Q.** What about the “STAT5 phosphorylation activity in CD4+ Tconv cells (in words)” value [3] of the same substance?
**A.** largely abolished

**Q.** How did the “STAT5 phosphorylation activity in Treg cells (in words)” value [1] turn out when “P-0449: IL-2 L19S/Q126E Fc fusion, SEQ ID NO: 175” was run?
**A.** significant potency

**Q.** And the “activity profile / selectivity window Treg over CD4+ Tconv (in words)” value [2]?
**A.** on par with Benchmark-2

**Q.** And the “STAT5 phosphorylation activity in CD4+ Tconv cells (in words)” value [3]?
**A.** largely abolished

**Q.** How did the “STAT5 phosphorylation activity in Treg cells (in words)” value [1] turn out when “P-0464: IL-2 L19Y/Q126K Fc fusion, SEQ ID NO: 176” was run?
**A.** retained comparable potency

**Q.** And the “STAT5 phosphorylation activity in CD4+ Tconv cells (in words)” value [3]?
**A.** varied significantly

**Q.** “P-0474: IL-2 L19Y/Q22K Fc fusion, SEQ ID NO: 186” was tested. Which “STAT5 phosphorylation activity in Treg cells (in words)” value [1] did it give?
**A.** retained comparable potency

**Q.** And the “STAT5 phosphorylation activity in CD4+ Tconv cells (in words)” value [3]?
**A.** varied significantly

**Q.** With “P-0480: IL-2 L19H/Q126K Fc fusion, SEQ ID NO: 189” as the substance, how does the “Treg Selectivity” value ([2]; Serine-125 constructs) read?
**A.** Yes

**Q.** With “P-0536: Tocilizumab IL-2 L19H/S125I/Q126E bivalent fusion, SEQ ID NOs 253 + 255” as the substance, how does the “STAT5 phosphorylation activity in Treg cells (in words)” value [1] read?
**A.** slightly higher activity than its monomeric equivalent P-0546

**Q.** What does the source list for “P-0559: Tocilizumab IL-2 D20Q/S125I bivalent fusion, SEQ ID NOs 253 + 265”?
**A.** STAT5 phosphorylation activity in Treg cells (in words) [1]: reduced potency; activity profile / selectivity window Treg over CD4+ Tconv (in words) [2]: selective activation of Treg cells over CD4+ Tconv cells; STAT5 phosphorylation activity in CD4+ Tconv cells (in words) [3]: essentially abolished

**Q.** How did the “STAT5 phosphorylation activity in Treg cells (in words)” value [1] turn out when “P-0588: Tocilizumab IL-2 D20S/S125I bivalent fusion, SEQ ID NOs 253 + 257” was run?
**A.** reduced potency

**Q.** With “P-0589: Tocilizumab IL-2 D20N/S125I bivalent fusion, SEQ ID NOs 253 + 258” as the substance, how does the “STAT5 phosphorylation activity in Treg cells (in words)” value [1] read?
**A.** reduced potency

**Q.** For “P-0590: Tocilizumab IL-2 L19N/S125I/Q126E bivalent fusion, SEQ ID NOs 253 + 267”, which “STAT5 phosphorylation activity in Treg cells (in words)” value [1] is on record?
**A.** reduced potency

**Q.** And the “maximum possible effect / signaling amplitude of STAT5 phosphorylation in Treg cells” value [1]?
**A.** lower signaling amplitude

**Q.** What does the source list for “P-0694: Tocilizumab IL-2 L19H/S125I/Q126D bivalent fusion, SEQ ID NOs 253 + 308”?
**A.** STAT5 phosphorylation activity in Treg cells (in words) [1]: reduced potency; activity profile / selectivity window Treg over CD4+ Tconv (in words) [2]: wide selectivity window; STAT5 phosphorylation activity in CD4+ Tconv cells (in words) [3]: essentially abolished

**Q.** “P-0695: Tocilizumab IL-2 L19H/S125I/Q126H bivalent fusion, SEQ ID NOs 253 + 309” was tested. Which “activity profile / selectivity window Treg over CD4+ Tconv (in words)” value [2] did it give?
**A.** did not impair the protein activity nor improve the Treg selectivity

**Q.** How did the “activity profile / selectivity window Treg over CD4+ Tconv (in words)” value [2] turn out when “P-0697: Tocilizumab IL-2 L19H/S125I/Q126N bivalent fusion, SEQ ID NOs 253 + 310” was run?
**A.** did not impair the protein activity nor improve the Treg selectivity

**Q.** For “P-0698: Tocilizumab IL-2 L19H/S125I/Q126R bivalent fusion, SEQ ID NOs 253 + 311”, which “activity profile / selectivity window Treg over CD4+ Tconv (in words)” value [2] is on record?
**A.** did not impair the protein activity nor improve the Treg selectivity

**Q.** With “P-0699: Tocilizumab IL-2 L19H/S125I/Q126S bivalent fusion, SEQ ID NOs 253 + 312” as the substance, how does the “activity profile / selectivity window Treg over CD4+ Tconv (in words)” value [2] read?
**A.** did not impair the protein activity nor improve the Treg selectivity

**Q.** “P-0700: Tocilizumab IL-2 L19H/S125I/Q126T bivalent fusion, SEQ ID NOs 253 + 307” was tested. Which “activity profile / selectivity window Treg over CD4+ Tconv (in words)” value [2] did it give?
**A.** did not impair the protein activity nor improve the Treg selectivity

**Q.** How did the “STAT5 phosphorylation activity in Treg cells (in words)” value [1] turn out when “P-0859: IL-2 L19N/S125I/Q126E Fc fusion, SEQ ID NO: 306” was run?
**A.** different levels of potency attenuation

**Q.** And the “maximum possible effect / signaling amplitude of STAT5 phosphorylation in Treg cells” value [1]?
**A.** moderately reduced

**Q.** “P-0860: IL-2 L19D/S125I/Q126E Fc fusion, SEQ ID NO: 300” was tested. Which “STAT5 phosphorylation activity in Treg cells (in words)” value [1] did it give?
**A.** different levels of potency attenuation

**Q.** What about the “maximum possible effect / signaling amplitude of STAT5 phosphorylation in Treg cells” value [1] of the same substance?
**A.** strikingly lower

**Q.** How did the “STAT5 phosphorylation activity in Treg cells (in words)” value [1] turn out when “P-0862: Fc fusion, 5 amino acid N-terminal deletion of P-0511 IL-2 variant (Table 4H prints L19D), SEQ ID NO: 302” was run?
**A.** fully retained potency

**Q.** How did the “STAT5 phosphorylation activity in Treg cells (in words)” value [1] turn out when “P-0863: Fc fusion, 7 amino acid N-terminal deletion of P-0511 IL-2 variant (Table 4H prints L19D), SEQ ID NO: 303” was run?
**A.** fully retained potency

From US20220170028A1, “NOVEL INTERLEUKIN-2 VARIANTS AND BIFUNCTIONAL FUSION MOLECULES THEREOF” (Cugene Inc, priority 2019, published 2022)
